Entries after “also recorded” stand apart in the source; their conditions may differ. Where a SMILES comes first, the peptide text is derived from it. The star is where a group is joined. Cbz = O=C(OCc1ccccc1)*

The test system of series [1] is SK-N-Be2 cells. Kind of series: Cell viability assay (CellTiterGlo) in SK-N-Be2 cells. Type of series: cell-based, human. The note with it: for IC20: determined empirically.
For series [2], the system named is MycN^AMP regulatory module (Master Regulators, TCM). The series can be described thus: PLATE-Seq with VIPER analysis: reversion of the MycN^AMP master regulator module. The class given is cell-based, human. The note with it: SK-N-Be2 cells, IC20, 24 hrs. An excerpt:
Reads were mapped against the human reference genome version Grch38 using the STAR aligner, and used the variance stabilizing transformation from the DESeq2 package for R to normalize each plate. Next, we corrected for batch effect due to having compounds replicates on separate plates. We used the function combat from the sva package for R to compute the batch-corrected normalized gene expression, and fitted a linear model for each compound against the set of DMSO controls on each plate (6 wells per plate per DMSO-treated cells). We used the limma package for R to fit the linear model and to compute p-values and moderated t-statistics for each gene. For each compound, we used a vector of these statistics to generate a gene expression profile of z-scores representing the compound effect as differential between post- and pre-treatment.
Each compound gene expression profile was analyzed using the VIPER algorithm (Alvarez et al. 2016) with TARGET and NRC NBL interactomes, reverse-engineered as described in (Rajbhandari et al. 2018), resulting in two protein activity profiles for each compound that were integrated using Stouffer's z-score method.

For series [3], the system named is Histone H3 phosphorylation. The series can be described thus: Histone H3 phosphorylation western blot. The class given is cell-based. The note with it: 1 μM. The source says:
Membranes were blocked using Odyssey Blocking Buffer (LI-COR) for 1 hr at room temperature. […] Primary antibodies used in these studies include: MycN (CST; 1:500 dilution), Actin (SCBT; 1:2000 dil.), cMYC (CST; 1:500 dil.), pAKT (S473; CST; 1:500 dil.), AKT (CST; 1:2000), pP70 (T389; CST; 1:1000) P70 (CST; 1:1000).
We also compared the potency of these drugs against a recently developed AurKA inhibitor that acts by disrupting protein confirmation rather than simply blocking the protein:protein interaction site as alisertib does.

For the next series, the target named is T1, CK2a1 (Homo sapiens, UniProt P68400).
T1 construct: purchased Reaction Biology Corporation (Malvern, Pa.)
T1 sequence (P68400 whole entry): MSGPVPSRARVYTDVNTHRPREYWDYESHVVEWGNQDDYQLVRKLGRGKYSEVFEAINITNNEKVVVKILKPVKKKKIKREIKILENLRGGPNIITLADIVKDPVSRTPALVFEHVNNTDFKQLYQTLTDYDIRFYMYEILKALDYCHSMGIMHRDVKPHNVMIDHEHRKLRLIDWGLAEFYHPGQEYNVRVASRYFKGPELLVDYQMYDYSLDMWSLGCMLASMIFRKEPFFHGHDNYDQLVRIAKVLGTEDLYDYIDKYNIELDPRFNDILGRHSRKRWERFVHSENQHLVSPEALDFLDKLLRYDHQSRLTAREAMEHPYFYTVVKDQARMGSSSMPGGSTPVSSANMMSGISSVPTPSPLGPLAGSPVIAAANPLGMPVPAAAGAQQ
The series can be described thus: Cell-free biochemical CK2a1 kinase assay. On the procedure: Cell-free biochemical kinase assays were performed at Reaction Biology Corporation (Malvern, Pa.). In brief, kinase substrates were diluted into reaction buffer containing 20 mM Hepes (pH 7.5), 10 mM MgCl2, 1 mM EGTA, 0.02% Brij35, 0.02 mg/ml BSA, 0.1 mM Na3VO4, 2 mM DTT, 1% DMSO. Purified protein (CK2a1, CK2a2, or mTOR) was added to the substrate solution and gently mixed. Test compounds were diluted from 10 mM DMSO stock solutions into the reaction buffer using an Echo550 acoustic dispenser, followed by incubation at RT for 20 min. 33P-ATP (10 μCi/μL) was added to reaction mixture, following incubation for 2 h at RT. Reactions were then spotted onto P81 ion exchange paper and kinase activity was detected by filter binding method.

Series [4] relates to SK-N-Be2 cells. Type of series: in vitro ADME, human. The procedure:
In brief, SK-N-Be2 cells were seeded at 400 k cells/well in 6 w plates and incubated overnight. The following day, compounds were added to wells at indicated concentrations, with DMSO-only control added to non-treated wells. Following treatment for the indicated time periods, cells were trypsinized, rinsed twice with cold PBS to remove media, pelleted by centrifugation, and frozen at −20° C. To extract compounds, frozen pellets were resuspended in 150 μL of acetonitrile, sonicated for 2′, and centrifuged at 1400×g for 75′ at 4° C. Supernatant was collected and analyzed by LC-MS using a system comprised of a Thermo Scientific Dionex Ultimate 3000 and a Bruker amaZon SL equipped with an electrospray ionization source controlled by a Bruker Hystar 3.2. Compounds were separated by injecting 20 μL of supernatant onto an Agilent Eclipse Plus C18 column (2.1×50 mm, […]) maintained at 20° C., with the flow rate set at 400 μL/min. Initial flow conditions were 60% solvent A (MilliQ H2O, 0.1% acetic acid), and 40% solvent B (HPLC-grade MeOH, 0.1% acetic acid). Solvent B was raised to 60% over 0.25 min and to 70% by 6.75 min. Solvent B was raised to 95% by 7 min and lowered back to 40% by 8 minutes; total run time was 9 min (Bos et al. 2019).

The test system of another series is mutant isoform of CK2a1. The series can be described thus: Cell viability after expression of mutant CK2a1 isoform. The settings on record: versus GFP-expressing plasmid.
A further series concerns MYCN transcript. Kind of series: RNASeq analysis of SK-N-Be2 cells, MYCN transcript. The class given is cell-based, human. The settings on record: 3 μM or 10 μM, 3 h and 6 h. The procedure: (§1) To uncover changes in gene expression that underpin responses to pomiferin and isopomiferin, RNASeq analysis of SK-N-Be2 cells was performed following treatment with the two active prenylated isoflavonoids as well as a null analog that served as a negative control. SK-N-Be2 cells were treated with either 3 μM or 10 μM of isopomiferin or pomiferin and sampled after 3 h and 6 h. […] By comparing the active to the null analogs, downstream analyses can focus on changes in gene expression associated with the MYCN signature.

For a further series, the system named is MYCN MR signature. The series can be described thus: RNASeq with VIPER analysis of the MYCN MR signature. The class given is cell-based, human. The note with it: SK-N-Be2 cells; listed as dimethyl pomiferin. The procedure:
as §1
Intriguingly, only six MRs were suppressed by pomiferin and isopomiferin, while being unaffected by the null analog dimethyl pomiferin (FIG. 20B).

A further series has as its system TEAD4 transcript. Kind of series: RNASeq analysis of SK-N-Be2 cells, TEAD4 transcript. Type of series: cell-based, human. The note with it: 3 μM or 10 μM, 3 h and 6 h. The procedure:
as §1

Another series deals with mTOR (Homo sapiens, UniProt P42345). The settings on record: Bajer et al. 2014; cited from earlier work.
The nature of series [5]: Metabolic stability in mouse liver microsomes. The note with it: 2 h incubation, positive control. The class given is in vitro ADME. The procedure:
Mouse liver microsomes (Xenotech) were diluted to 0.5 mg/mL in a solution containing 100 mM PBS buffer at 7.4 pH, an NADPH regenerating system (Promega), and test compounds at 20 μM. The mixture was incubated at 37° C. under gentle rotation for the indicated time points. The reaction was quenched by aliquoting 15 μL of solution into 60 μL ice-cold acetonitrile containing an internal standard. Test compounds were quantified by LC-MS using a system comprised of a Thermo Scientific Dionex Ultimate 3000 and a Bruker amaZon SL equipped with an electrospray ionization source controlled by a Bruker Hystar 3.2. Compounds were separated by injecting 20 μL of sample onto an Agilent Eclipse Plus C18 column (2.1×50 mm, […]) maintained at 20° C., with the flow rate set at 400 μL/min. Initial flow conditions were 60% solvent A (MilliQ H2O, 0.1% acetic acid), and 40% solvent B (HPLC-grade MeOH, 0.1% acetic acid). Solvent B was raised to 60% over 0.25 min and to 70% by 6.75 min. Solvent B was raised to 95% by 7 min and lowered back to 40% by 8 minutes; total run time was 9 min.

Setting [6] is: Homo sapiens, SKNBE2, SK-N-Be2 cells.

In turn, `Oc1ccc(Cl)c2cccnc12` [Cloxyquin] gave a concentration for an effect of 20% (IC20) in the series on SK-N-Be2 cells [1] (setting [6]) of 5 µM.

In the series with SK-N-Be2 cells [1] (setting [6]), `COc1c(C)c2c(c(O)c1C/C=C(\C)CCC(=O)O)C(=O)OC2` [Mycophenolic acid] displayed a 20% effect concentration (IC20) of 2.5 µM.

`c1ccc2c(c1)Nc1ccccc1S2` [phenothiazine]: the “reversion of the MR regulatory module / TCM (VIPER of PLATE-Seq)” value in [2] is “does not revert the signature”. Moreover, the “activity in NBL cells (cell viability)” value in the series with SK-N-Be2 cells [1] (NBL cell lines, 48 hrs) is “inactive in NBL”.

Compound `CO[C@H]1/C=C\C=C(/C)C(=O)NC2=CC(=O)C(N)=C(C[C@@H](C)C[C@H](OC)[C@H](O)[C@@H](C)/C=C(\C)[C@@H]1OC(N)=O)C2=O` [NSC255109] gave an IC20 in the series on SK-N-Be2 cells [1] (SK-N-Be2 cells) of 2.5 µM.

Turning to `CN(C)c1ccc2nc3ccc(N)cc3[s+]c2c1.[Cl-]` [Azure A], the “Histone H3 phosphorylation” value in series [3] is listed as “inhibit Histone H3 phosphorylation”. This compound also yielded an IC20 in the series on SK-N-Be2 cells [1] (SK-N-Be2 cells) of 1 µM.

For the compound `CC[C@@H](C(=O)O)[C@@H]1O[C@@H]([C@@H](C)[C@H](O)[C@H](C)C(=O)[C@H](CC)[C@H]2O[C@]3(C=C[C@@H](O)[C@]4(CC[C@@](C)([C@H]5CC[C@](O)(CC)[C@H](C)O5)O4)O3)[C@H](C)C[C@@H]2C)[C@@H](C)C[C@@H]1C` [Narasin], it took 1 µM to reach the 20% level in the series with SK-N-Be2 cells [1] (setting [6]) (IC20).

On to `O=C(O)c1ccc2c(c1)nc(Nc1cccc(Cl)c1)c1ccncc12` [CX-4945], for which the CK2a1 kinase activity result on CK2a1 is on record as “completely inhibited kinase activity of CK2a at all concentrations tested”. In addition, the cell permeability entry with SK-N-Be2 cells [4] is given as “poor cell permeability”. Besides, in the series with SK-N-Be2 cells [4] (human, 20 μM), the “amount of compound detected in cell sample” value was determined as 2.2 ng. The “resistance conferred by mutant CK2 isoform” value with mutant isoform of CK2a1 was “modest resistance”.

Turning to `CN(C)c1ccc2nc3ccc(=[N+](C)C)cc-3sc2c1` [Methylene Blue], the “Histone H3 phosphorylation” value in series [3] was “inhibit Histone H3 phosphorylation”. The compound also displayed an IC20 in the series on SK-N-Be2 cells [1] (setting [6]) of 2 µM.

`c1ccc(-c2cccc(-c3ccccn3)n2)nc1` [NSC3905] came in with an IC20 in the series on SK-N-Be2 cells [1] (SK-N-Be2 cells) of 3 µM.

As to `CC(C)C[C@@H](C=O)NC(=O)[C@H](CC(C)C)NC(=O)[C@H](CC(C)C)NC(=O)OCc1ccccc1` [MG132] (Cbz-Leu-Leu-Leu-aldehyde), the “resistance conferred by mutant CK2 isoform” value with mutant isoform of CK2a1 is reported as “no resistance was conferred by the plasmid”.

On to `COc1ccc(-c2coc3c4c(c(CC=C(C)C)c(O)c3c2=O)OC(C)(C)C=C4)cc1OC` [pomiferin dimethyl ether, 3-(3,4-dimethoxyphenyl)-5-hydroxy-8,8-dimethyl-6-(3-methylbut-2-en-1-yl)-4H,8H-pyrano[2,3-f]chromen-4-one], for which the “inhibition of SK-N-Be2 cell viability (rank or activity in words)” value in the series with SK-N-Be2 cells [1] (SK-N-Be2 cells, 72 hrs) is recorded as “inactivity at 20 μM”. Moreover, the “MYCN transcript abundance (RNASeq)” value in the series with MYCN transcript is on record as “did not affect either MYCN or TEAD4”. Besides, in the series on MYCN MR signature, the “effect on the MYCN MR signature (VIPER of RNASeq)” value is recorded as “does not revert the MYCN signature; also recorded: did not”. For the same compound, the “TEAD4 transcript (RNASeq)” value in the series on TEAD4 transcript is recorded as “did not affect either MYCN or TEAD4”.

Turning to `COc1cc(Nc2ncc3c(n2)-c2ccc(Cl)cc2C(c2c(F)cccc2OC)=NC3)ccc1C(=O)O` [alisertib], the “Histone H3 phosphorylation” value in [3] was “inhibit Histone H3 phosphorylation”. Further, the “reversion of the MR regulatory module / TCM (VIPER of PLATE-Seq)” value in series [2] is listed as “does not suppress the regulatory signature in the same way as isopomiferin”.

Regarding `CC(=O)Oc1ccc(-c2coc3c4c(c(CC=C(C)C)c(OC(C)=O)c3c2=O)OC(C)(C)C=C4)cc1OC(C)=O` [pomiferin triacetate, 4-(5-acetoxy-8,8-dimethyl-6-(3-methylbut-2-en-1-yl)-4-oxo-4H,8H-pyrano[2,3-f]chromen-3-yl)-1,2-phenylene diacetate], the “mTOR activity and general kinase inhibition” value at mTOR was “can inhibit mTOR activity; also recorded: does not possess general kinase inhibition activity”.

`CC(=O)[C@@]1(O)[C@H](C)C[C@H]2[C@@H]3C=C(C)C4=Cc5c(cnn5-c5ccccc5)C[C@]4(C)[C@H]3[C@@H](O)C[C@@]21C` [NSC80997] had an IC20 with SK-N-Be2 cells [1] (SK-N-Be2 cells) of 7.5 µM.

With `OC(c1cc(-c2ccc(C(F)(F)F)cc2)nc(C(F)(F)F)c1)C1CCCCN1` (stereo not shown) [NSC305798], it took 5 µM to reach the 20% level in the series with SK-N-Be2 cells [1] (SK-N-Be2 cells) (IC20).

`CCOc1ccc2ccc(=O)oc2c1` [7-ethoxycoumarin, reference compound]: the “metabolism by mouse liver microsomes” value in series [5] is “metabolized across the duration of the assay”.

On to `COc1cccc2c1C(=O)c1c(O)c3c(c(O)c1C2=O)C[C@@](O)(C(=O)CO)C[C@@H]3O[C@H]1C[C@H](N)[C@H](O)[C@H](C)O1` [doxorubicin], for which the “reversion of the MR regulatory module / TCM (VIPER of PLATE-Seq)” value in series [2] is “induced spurious effects”.

As for `COc1cc([C@@H]2c3cc4c(cc3[C@H](O)[C@H]3COC(=O)[C@H]23)OCO4)cc(OC)c1OC` [Podofilox], the IC20 in the series on SK-N-Be2 cells [1] (setting [6]) worked out at 1 µM.

These data come from patent US20220119399A1, “COMPOUNDS AND COMPOSITIONS THAT CAUSE MYCN AND/OR CMYC DEGRADATION AND METHODS OF USE THEREOF” (THE TRUSTEES OF COLUMBIA UNIVERSITY IN THE CITY OF NEW YORK, priority 2018, published 2022).
